Test results from patent US8093241B2, “Acid amide derivatives, process for their production and pesticides containing them” (Ishihara Sangyo Kaisha, Ltd., priority 2001, dated 2012).

System: Southern Root-Knot Nematode (Meloidgyne incognita)
Test: Test on southern root-knot nematode (soil incorporation)
Assay type: in vivo
Design: key: 0: No knot was formed; 1: Knots were formed to a slight degree; 2: Knots were formed to a moderate degree; 3: Knots were formed to a heavy degree; 4: Knots were formed to the heaviest degree
Settings: 7 ml of 1600 ppm solution to 300 ml contaminated soil, tomato seedling, three to four weeks after transplantation
Procedure: Test on Southern Root-Knot Nematode (Meloidgyne incognita) (Soil Incorporation)
To 300 ml of the soil contaminated by southern root-knot nematode, 7 ml of a chemical solution having the concentration of the compound of the present invention adjusted to be 1600 ppm, is poured, followed by mixing so that the compound is uniformly dispersed. The treated soil is put into a pot (diameter: 9 cm, height: 8 cm), and then a tomato seedling in 2-leaf stage is transplanted and placed in a greenhouse. After three to four weeks from the transplantation of the tomato, the root knot index is determined based on the following standards. […] For example, the compound Nos. 1-25, 1-26, 1-73, 1-100, 1-122, 1-123, 1-125, 1-127, 1-130, 1-131, 1-133, 1-136, 1-137, 1-139, 1-140, 1-172, 1-173, 1-177, 5-5, 5-9, 5-11, 5-16, 5-20, 8-2, 8-5, 13-2, 13-4, 13-6, 13-7, 13-18, 13-19, 13-44, 13-45, 16-32, 16-37 and 16-38 were at a level of a root knot index of not more than 1.

Compound | root knot index
2-fluoro-N-[2-[(2,2,3,3,-tetrafluoro-5-methyl-1,4-benzodioxan-6-yl)carbonyl]-2-propyl]benzamide [Compound No. 16-37] | 1
CC(C)(NC(=O)c1c(F)cccc1F)C(=O)c1ccc(OS(C)(=O)=O)cc1 [Compound No. 1-25, 2,6-difluoro-N-[(1,1-dimethyl-4′-methylsulfonyloxy)phenacyl]benzamide] | 1
CC(C)(NC(=O)c1c(F)cccc1F)C(=O)c1ccc(OS(=O)(=O)C(F)(F)F)cc1 [Compound No. 1-26, 2,6-difluoro-N-[(1,1-dimethyl-4′-trifluoromethylsulfonyloxy)phenacyl]benzamide] | 1
CC(C)(NC(=O)c1ccccc1C(N)=O)C(=O)c1ccc(Cl)cc1 [Compound No. 1-122, 2-aminocarbonyl-N-[(4′-chloro-1,1-dimethyl)phenacyl]benzamide] | 1

System: not given
Test: not given
Settings: not given

melting point | Compound
139 to 142 °C | CC(C)(NC(=O)c1c(F)cccc1F)C(=O)c1ccsc1 [Compound No. 6-5, 2,6-difluoro-N-[1-methyl-1-(3-thenoyl)ethyl]benzamide]
116 to 119 °C | CC(C)(NC(=O)c1c(F)cccc1F)C(=O)c1ccc(C(F)(F)F)cn1 [Compound No. 8-43, 2,6-difluoro-N-[2-(5-trifluoromethyl-2-pyridylcarbonyl)-2-propyl]benzamide]
